{
  "source": "patent US9028845B2",
  "about": "“Chimeric immunomodulatory compounds and methods of using the same-IV” (Dynavax Technologies Corporation, priority 2001, dated 2015)",
  "system": "human PBMCs",
  "assay": "Human PBMC cytokine response assay (IFN-γ and IFN-α in cell-free medium by ELISA), with or without cPLGA",
  "format": "cell-based",
  "key": {"[1]": {"settings": "Donor 5, 20 μg/ml (mixtures: 20 μg/ml total), 24 h"}, "[2]": {"settings": "Donor 6, 20 μg/ml (mixtures: 20 μg/ml total), 24 h"}},
  "data": [
    {"substance": "5′-TGACTGTGAACGTTCGAGATGA-3′ (SEQ ID NO: 2) [Compound P-6, reference compound]", "values": [
      {"measurement": "IFN-α (pg/ml) Donor 1", "setting": "Donor 1, 20 μg/ml, 24 h", "value": 401, "unit": "pg/mL"},
      {"measurement": "IFN-γ (pg/ml) Donor 1", "setting": "Donor 1, 20 μg/ml, 24 h", "value": 2180, "unit": "pg/mL"},
      {"measurement": "IFN-α (pg/ml) Donor 2", "setting": "Donor 2, 20 μg/ml, 24 h", "value": 39, "unit": "pg/mL"},
      {"measurement": "IFN-γ (pg/ml) Donor 2", "setting": "Donor 2, 20 μg/ml, 24 h", "value": 669, "unit": "pg/mL"},
      {"measurement": "IFN-α (pg/ml) Donor 3", "setting": "Donor 3, 20 μg/ml, 24 h", "value": 28, "unit": "pg/mL"},
      {"measurement": "IFN-γ (pg/ml) Donor 3", "setting": "Donor 3, 20 μg/ml, 24 h", "value": 99, "unit": "pg/mL"},
      {"measurement": "IFN-α (pg/ml) Donor 4", "setting": "Donor 4, 20 μg/ml, 24 h", "value": 106, "unit": "pg/mL"},
      {"measurement": "IFN-γ (pg/ml) Donor 4", "setting": "Donor 4, 20 μg/ml, 24 h", "value": 223, "unit": "pg/mL"},
      {"measurement": "IFN-α (pg/ml) Donor 5", "setting": "[1]", "value": 54, "unit": "pg/mL"},
      {"measurement": "IFN-γ (pg/ml) Donor 5", "setting": "[1]", "value": 73, "unit": "pg/mL"},
      {"measurement": "IFN-α (pg/ml) Donor 6", "setting": "[2]", "value": 482, "unit": "pg/mL"},
      {"measurement": "IFN-γ (pg/ml) Donor 6", "setting": "[2]", "value": 1170, "unit": "pg/mL"},
      {"measurement": "IFN-α (pg/ml) Donor 7", "setting": "Donor 7, 20 μg/ml, 24 h", "value": 4, "unit": "pg/mL"},
      {"measurement": "IFN-γ (pg/ml) Donor 7", "setting": "Donor 7, 20 μg/ml, 24 h", "value": 15, "unit": "pg/mL"},
      {"measurement": "IFN-α (pg/ml) Donor 8", "setting": "Donor 8, 20 μg/ml, 24 h", "value": 59, "unit": "pg/mL"},
      {"measurement": "IFN-γ (pg/ml) Donor 8", "setting": "Donor 8, 20 μg/ml, 24 h", "value": 367, "unit": "pg/mL"},
      {"measurement": "IFN-α Donor 9", "setting": "Donor 9, 20 μg/ml, 24 h", "value": 12},
      {"measurement": "IFN-γ Donor 9", "setting": "Donor 9, 20 μg/ml, 24 h", "value": 66},
      {"measurement": "IFN-α Donor 10", "setting": "Donor 10, 20 μg/ml, 24 h", "value": 28},
      {"measurement": "IFN-γ Donor 10", "setting": "Donor 10, 20 μg/ml, 24 h", "value": 20},
      {"measurement": "IFN-α Donor 11", "setting": "Donor 11, 20 μg/ml, 24 h", "value": 12},
      {"measurement": "IFN-γ Donor 11", "setting": "Donor 11, 20 μg/ml, 24 h", "value": 72},
      {"measurement": "IFN-α Donor 12", "setting": "Donor 12, 20 μg/ml, 24 h", "value": 12},
      {"measurement": "IFN-γ Donor 12", "setting": "Donor 12, 20 μg/ml, 24 h", "value": 23},
      {"measurement": "IFN-α", "setting": "Example 58, 0.8 ug/ml, donor 1", "value": 52, "unit": "pg/mL"},
      {"measurement": "IFN-α", "setting": "Example 58, 0.8 ug/ml, donor 2", "value": 52, "unit": "pg/mL"},
      {"measurement": "IFN-α", "setting": "Example 58, 0.8 ug/ml, donor 3", "value": 52, "unit": "pg/mL"},
      {"measurement": "IFN-α", "setting": "Example 58, 0.8 ug/ml, donor 4", "value": 52, "unit": "pg/mL"},
      {"measurement": "IFN-α mean", "setting": "Example 58, 0.8 ug/ml, mean of four individuals", "value": 52, "unit": "pg/mL"},
      {"measurement": "IFN-α", "setting": "Example 58, 4 ug/ml, donor 1", "value": 115, "unit": "pg/mL"},
      {"measurement": "IFN-α", "setting": "Example 58, 4 ug/ml, donor 2", "value": 52, "unit": "pg/mL"},
      {"measurement": "IFN-α", "setting": "Example 58, 4 ug/ml, donor 3", "value": 52, "unit": "pg/mL"},
      {"measurement": "IFN-α", "setting": "Example 58, 4 ug/ml, donor 4", "value": 65, "unit": "pg/mL"},
      {"measurement": "IFN-α mean", "setting": "Example 58, 4 ug/ml, mean of four individuals", "value": 71, "unit": "pg/mL"},
      {"measurement": "IFN-α", "setting": "Example 58, 20 ug/ml, donor 1", "value": 116, "unit": "pg/mL"},
      {"measurement": "IFN-α", "setting": "Example 58, 20 ug/ml, donor 2", "value": 64, "unit": "pg/mL"},
      {"measurement": "IFN-α", "setting": "Example 58, 20 ug/ml, donor 3", "value": 52, "unit": "pg/mL"},
      {"measurement": "IFN-α", "setting": "Example 58, 20 ug/ml, donor 4", "value": 52, "unit": "pg/mL"},
      {"measurement": "IFN-α mean", "setting": "Example 58, 20 ug/ml, mean of four individuals", "value": 71, "unit": "pg/mL"},
      {"measurement": "IFN-α", "setting": "Example 59, 0.8 ug/ml, donor 48", "value": 102, "unit": "pg/mL"},
      {"measurement": "IFN-α", "setting": "Example 59, 0.8 ug/ml, donor 177", "value": 102, "unit": "pg/mL"},
      {"measurement": "IFN-α", "setting": "Example 59, 0.8 ug/ml, donor 272", "value": 102, "unit": "pg/mL"},
      {"measurement": "IFN-α", "setting": "Example 59, 0.8 ug/ml, donor 273", "value": 102, "unit": "pg/mL"},
      {"measurement": "IFN-α mean", "setting": "Example 59, 0.8 ug/ml, mean of four donors", "value": 102, "unit": "pg/mL"},
      {"measurement": "IFN-α", "setting": "Example 59, 4 ug/ml, donor 48", "value": 102, "unit": "pg/mL"},
      {"measurement": "IFN-α", "setting": "Example 59, 4 ug/ml, donor 177", "value": 245, "unit": "pg/mL"},
      {"measurement": "IFN-α", "setting": "Example 59, 4 ug/ml, donor 272", "value": 102, "unit": "pg/mL"},
      {"measurement": "IFN-α", "setting": "Example 59, 4 ug/ml, donor 273", "value": 102, "unit": "pg/mL"},
      {"measurement": "IFN-α mean", "setting": "Example 59, 4 ug/ml, mean of four donors", "value": 138, "unit": "pg/mL"},
      {"measurement": "IFN-α", "setting": "Example 59, 20 ug/ml, donor 48", "value": 256, "unit": "pg/mL"},
      {"measurement": "IFN-α", "setting": "Example 59, 20 ug/ml, donor 177", "value": 323, "unit": "pg/mL"},
      {"measurement": "IFN-α", "setting": "Example 59, 20 ug/ml, donor 272", "value": 102, "unit": "pg/mL"},
      {"measurement": "IFN-α", "setting": "Example 59, 20 ug/ml, donor 273", "value": 102, "unit": "pg/mL"},
      {"measurement": "IFN-α mean", "setting": "Example 59, 20 ug/ml, mean of four donors", "value": 196, "unit": "pg/mL"},
      {"measurement": "IFN-α", "setting": "Table 9, donor 28089", "value": 0, "unit": "pg/mL"},
      {"measurement": "IFN-γ", "setting": "Table 9, donor 28089", "value": 84, "unit": "pg/mL"},
      {"measurement": "IFN-α", "setting": "Table 9, donor 28090", "value": 62, "unit": "pg/mL"},
      {"measurement": "IFN-γ", "setting": "Table 9, donor 28090", "value": 255, "unit": "pg/mL"},
      {"measurement": "IFN-α", "setting": "Table 9, donor 28098", "value": 105, "unit": "pg/mL"},
      {"measurement": "IFN-γ", "setting": "Table 9, donor 28098", "value": 745, "unit": "pg/mL"},
      {"measurement": "IFN-α", "setting": "Table 9, donor 28099", "value": 105, "unit": "pg/mL"},
      {"measurement": "IFN-γ", "setting": "Table 9, donor 28099", "value": 125, "unit": "pg/mL"},
      {"measurement": "IFN-α mean", "setting": "Table 9, mean of donors", "value": 68, "unit": "pg/mL"},
      {"measurement": "IFN-γ mean", "setting": "Table 9, mean of donors", "value": 302, "unit": "pg/mL"},
      {"measurement": "IFN-α", "setting": "Table 10, donor 28042", "value": 27, "unit": "pg/mL"},
      {"measurement": "IFN-γ", "setting": "Table 10, donor 28042", "value": 495, "unit": "pg/mL"},
      {"measurement": "IFN-α", "setting": "Table 10, donor 28043", "value": 85, "unit": "pg/mL"},
      {"measurement": "IFN-γ", "setting": "Table 10, donor 28043", "value": 1189, "unit": "pg/mL"},
      {"measurement": "IFN-α", "setting": "Table 10, donor 28044", "value": 36, "unit": "pg/mL"},
      {"measurement": "IFN-γ", "setting": "Table 10, donor 28044", "value": 925, "unit": "pg/mL"},
      {"measurement": "IFN-α", "setting": "Table 10, donor 28045", "value": 21, "unit": "pg/mL"},
      {"measurement": "IFN-γ", "setting": "Table 10, donor 28045", "value": 212, "unit": "pg/mL"},
      {"measurement": "IFN-α mean", "setting": "Table 10, mean of donors", "value": 42, "unit": "pg/mL"},
      {"measurement": "IFN-γ mean", "setting": "Table 10, mean of donors", "value": 705, "unit": "pg/mL"},
      {"measurement": "IFN-α", "setting": "Table 11, donor 28042", "value": 9, "unit": "pg/mL"},
      {"measurement": "IFN-γ", "setting": "Table 11, donor 28042", "value": 324, "unit": "pg/mL"},
      {"measurement": "IFN-α", "setting": "Table 11, donor 28043", "value": 34, "unit": "pg/mL"},
      {"measurement": "IFN-γ", "setting": "Table 11, donor 28043", "value": 1036, "unit": "pg/mL"},
      {"measurement": "IFN-α", "setting": "Table 11, donor 28044", "value": 22, "unit": "pg/mL"},
      {"measurement": "IFN-γ", "setting": "Table 11, donor 28044", "value": 529, "unit": "pg/mL"},
      {"measurement": "IFN-γ", "setting": "Table 11, donor 28045", "value": 653, "unit": "pg/mL"},
      {"measurement": "IFN-α mean", "setting": "Table 11, mean of donors", "value": 43, "unit": "pg/mL"},
      {"measurement": "IFN-γ mean", "setting": "Table 11, mean of donors", "value": 636, "unit": "pg/mL"},
      {"measurement": "IFN-α", "setting": "Table 13, donor 28156", "value": 52, "unit": "pg/mL"},
      {"measurement": "IFN-γ", "setting": "Table 13, donor 28156", "value": 1132, "unit": "pg/mL"},
      {"measurement": "IFN-α", "setting": "Table 13, donor 28157", "value": 484, "unit": "pg/mL"},
      {"measurement": "IFN-γ", "setting": "Table 13, donor 28157", "value": 872, "unit": "pg/mL"}
    ]}
  ]
}
